We go through five molecules from ChEMBL document CHEMBL1155557, “New quinoline alkaloids from Ruta chalepensis” (2000).

Values after ≈ are worked out from the molar mass of the structure shown.

What all share (assay type): functional
Experiment [1] concerns Mycolicibacterium smegmatis. The experiment is described as follows: Antibacterial activity against Mycobacterium smegmatis by microtiter plate assay.
The test system of a further experiment is Bacillus subtilis. The experiment is described as follows: Antibacterial activity against Bacillus subtilis by microtiter plate assay.
A further experiment concerns Staphylococcus aureus. The experiment is described as follows: Antibacterial activity against Staphylococcus aureus by microtiter plate assay.
The subject of another experiment is Candida albicans. The experiment is described as follows: […] activity against Candida albicans by microtiter plate assay.

As usually defined, the MIC is the lowest concentration that inhibits growth of the organism. A low value points to a more susceptible organism. On to `COc1c2ccccc2nc2occc12` [DICTAMNINE], for which the minimum inhibitory concentration (MIC) (in experiment [1]; against Bacillus subtilis) was 100 µg/mL (≈ 502 µM) throughout.

In the case of `Cn1c2ccccc2c(=O)c2c(O)cc3c(c21)CC(C(C)(O)CCl)O3` (configuration not stated) [ISOGRAVACRIDONECHLORINE], the MIC (in experiment [1]; with Bacillus subtilis) was 100 µg/mL (≈ 278 µM) throughout.

As for `CC(O)CCCCc1ccc2c(c1)OCO2` (configuration not stated) [MOSKACHAN C], the MIC (in experiment [1]; against Bacillus subtilis) was 100 µg/mL (≈ 450 µM) in each case.

As for `COc1ccc2nc3occc3c(OC)c2c1` [PTELEINE], the minimum inhibitory concentration (MIC) (in experiment [1]; with Bacillus subtilis; in the experiment on Staphylococcus aureus; in the experiment with Candida albicans) was 50 µg/mL (≈ 218 µM) each time.

As for `COc1ccc2c(OC)c3ccoc3nc2c1OC` [SKIMMIANINE], the MIC (in experiment [1]; in the experiment on Bacillus subtilis) was 100 µg/mL (≈ 386 µM) in each case.
